Results on 3 compounds are retold here after patent EP2402322A1, “1,2,3,4-tetrahydroisoquinoline derivative and its use as orexin receptor antagonist” (Actelion Pharmaceuticals Ltd., priority 2010, dated 2012).

Read-outs that look alike come from different tables or passages of the source.

The conditions of series [1]: rat; cited from earlier work.
The test system of series [2] is rat. As to conditions: cited from earlier work.
The test system of series [3] is rat. The following applies: animal model of conditioned fear; cited from earlier work.
Another series relates to Wistar rats. Description: EEG, EMG and behavioural indices of alertness recorded by radiotelemetry (absence of sleep-promoting effects). The class given is in vivo. The procedure:
EEG and EMG signals were measured by telemetry using TL11 M2-F20-EET miniature radiotelemetric implants (Data Science Int.) with two pairs of differential leads.
Surgical implantation was performed under general anesthesia with Ketamin/Xylazln, for cranial placement of one differential pair of EEG electrodes and one pair of EMG leads inserted in either side of the muscles of the neck. After surgery, rats recovered in a thermoregulated chamber and received analgesic treatment with subcutaneous buprenorphine twice a day for 2 d. They were then housed individually and allowed to recover for a minimum of 2 weeks. Thereafter, rats—in their home cage—were placed in a ventilate sound-attenuating box, on a 12-h light / 12-h dark cycle, for acclimatization before continuous EEG / EMG recordings started. The telemetric technology that we used in this study allows accurate and stress-free acquisition of biosignals in rats placed In their familiar home cage environment, with no recording leads restricting their movements. Variables analyzed included four different stages of vigilance and sleep, spontaneous activity in the home cage and body temperature. Sleep and wake stages were evaluated using a rodent scoring software (Somnologica Science) directly processing electrical biosignals on 10 s contiguous epochs. The scoring is based on frequency estimation for EEG and amplitude discrimination for EMG and locomotor activity. Using these measurements, the software determines the probability that all components within each epoch best represent active waking (AW), quiet waking (QW), non-REM-sleep (NREM) or REM-sleep (REM). The percentage of total time spent in AW, QW. NREM- and REM-sleep was calculated per 12 h light or dark period. The latency to the onset of the first significant NREM- and REM-sleep episodes and the frequency and duration of those episodes were also calculated. […] All variables were subsequently recorded for 12 h following administration of the orexin receptor antagonist.

Another series concerns the target T1, human orexin-1 receptor (Homo sapiens, UniProt O43613).
T1 construct: expressed in transfected cells; host or cells: CHO cells (G418 selection)
T1 sequence (O43613 1-425): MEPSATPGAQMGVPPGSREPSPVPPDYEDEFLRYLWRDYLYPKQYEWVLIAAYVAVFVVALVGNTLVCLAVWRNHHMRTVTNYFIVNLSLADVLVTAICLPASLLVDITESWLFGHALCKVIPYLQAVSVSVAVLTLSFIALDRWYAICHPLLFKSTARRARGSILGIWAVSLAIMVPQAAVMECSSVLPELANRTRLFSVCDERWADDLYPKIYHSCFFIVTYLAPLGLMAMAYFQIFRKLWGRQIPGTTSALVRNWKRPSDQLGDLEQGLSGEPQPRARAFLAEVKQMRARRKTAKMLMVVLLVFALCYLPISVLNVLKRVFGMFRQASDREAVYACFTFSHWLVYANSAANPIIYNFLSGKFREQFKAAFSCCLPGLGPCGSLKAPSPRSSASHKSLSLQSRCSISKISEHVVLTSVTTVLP
Description: Intracellular calcium measurements (FLIPR), CHO cells, 3 nM orexin-A as agonist. The class given is cell-based. The procedure: Chinese hamster ovary (CHO) cells expressing the human orexin-1 receptor and the human orexin-2 receptor, respectively, are grown in culture medium (Ham F-12 with L-Glutamine) containing 300 µg/ml G418, 100 U/ml penicillin, 100 µg/ml streptomycin and 10 % heat inactivated fetal calf serum (FCS). The cells are seeded at 20'000 cells / well into 384-well black clear bottom sterile plates (Greiner). The seeded plates are incubated overnight at 37°C in 5% CO2.
Human orexin-A as an agonist is prepared as 1 mM stock solution in MeOH: water (1:1), diluted in HBSS containing 0.1 % bovine serum albumin (BSA), NaHCO3: 0.375g/l and 20 mM HEPES for use in the assay at a final concentration of 3 nM. […]
Within the Fluorescent Imaging Plate Reader (FLIPR Tetra, Molecular Devices), antagonists are added to the plate in a volume of 10 µl/well, incubated for 10 min and finally 10 µl/well of agonist is added. Fluorescence is measured for each well at 1 second intervals, and the height of each fluorescence peak is compared to the height of the fluorescence peak induced by 3 nM orexin-A with vehicle in place of antagonist. […] The calculated IC50 values may fluctuate depending on the daily cellular assay performance. […]
(In general: Calcium assays in cells follow changes in intracellular calcium, usually with a dye or a luminescent sensor.)

Another series relates to Male Sprague Dawley rats. Description: Acquisition of morphine induced locomotor sensitization. The class given is in vivo. The following applies: 300 mg/kg p.o. 2 h before each morphine injection (10 mg/kg i.p.), 4 pairings; Figure 1. The text has this:
Method: Although, in essence, locomotor sensitization is a non-associative learning process, the context plays a major role in the development and expression of locomotor sensitization. Thus, drug injections are usually administered intermittently in a context different from the home cage, such as an open field, where locomotor activity can be quantitatively measured. Drugs are regularly administered in high concentrations and via routes of administration with a fast onset of action (such as intraperitoneal or intravenous injections). In order to induce robust locomotor sensitization drugs are administered typically once a day over a period of several days. Once established in such a way, locomotor sensitization can be observed in response to a new drug challenge over a period of up to several months.
Method: Male Sprague Dawley rats are injected with morphine (10 mg/kg i.p.) and placed immediately afterwards in an open field (45 x 40 x 33 cm) for 45 min. Total distance moved (TDM) of the animal is recorded automatically via video-tracking. This procedure is repeated 4 times, every 2nd day, so that each animal received a total number of 4 pairings of morphine injection within the context of the open field.

The test system of the next series is F344 rats. Description: Fear-potentiated startle paradigm. The class given is in vivo. The following applies: 300 mg/kg oral gavage, 1 h before test, n=16 F344 rats; Figure 2. The text has this: The fear-potentiated startle (FPS) paradigm is a model of conditioned fear in rodents that relates to emotional states of fear and anxiety. Rats can be trained to associate an initially neutral, soon-to-be conditioned stimulus (CS: e.g. light) with an aversive, unconditioned stimulus (US; e.g. foot shook). When tested after training for their startle reflex response to brief (ms) noise bursts in the absence vs. the presence of the CS (e.g. light), rats generally show greater startle amplitudes during the presence of the CS which now serves as a predictor of shock. […] This model translates to humans where a similar training procedure can be implemented and a FPS response can also be evoked in the presence of a shock predicting cue. […] The current paradigm represents a translational animal model that is predictive of anxiolytic activity of a drug.
Method: Sixteen adult male F344 rats were trained for two consecutive days (conditioning phase) to associate a light-stimulus with a foot shock (0.4 mA). On the following day they were tested for their response to startle eliciting noise stimuli which were delivered randomly under light (cue) or dark (no cue) conditions. […] Average startle responses to noise stimuli of 90, 100 and 110dB intensity under light and dark conditions during the test day were measured and electrically transduced into a millivolt signal. […]

A short description of series [4]: Measurement of brain and systemic concentration after oral administration. The class given is in vivo, male wistar rats. The following applies: rat; for concentration at 3 h: 3 h after oral administration (100 mg/kg), n = 3, male wistar rats, 100% PEG 400; for capacity to cross the blood-brain barrier: summary statement. The procedure: The compounds are formulated in 100% PEG 400. Samples are collected in the same animal at the same time point (+/- 5 min). Blood is sampled from the vena cava caudalis into containers with EDTA as anticoagulant and centrifuged to yield plasma. Brain is sampled after cardiac perfusion of 10 mL NaCl 0.9% and homogenized into one volume of cold phosphate buffer (pH 7.4). All samples are extracted with MeOH and analyzed by LC-MS/MS. Concentrations are determined with the help of calibration curves.

The target in another series is T2, human orexin-2 receptor (Homo sapiens, UniProt O43614).
T2 construct: expressed in transfected cells; host or cells: CHO cells (G418 selection)
T2 sequence (O43614 1-444): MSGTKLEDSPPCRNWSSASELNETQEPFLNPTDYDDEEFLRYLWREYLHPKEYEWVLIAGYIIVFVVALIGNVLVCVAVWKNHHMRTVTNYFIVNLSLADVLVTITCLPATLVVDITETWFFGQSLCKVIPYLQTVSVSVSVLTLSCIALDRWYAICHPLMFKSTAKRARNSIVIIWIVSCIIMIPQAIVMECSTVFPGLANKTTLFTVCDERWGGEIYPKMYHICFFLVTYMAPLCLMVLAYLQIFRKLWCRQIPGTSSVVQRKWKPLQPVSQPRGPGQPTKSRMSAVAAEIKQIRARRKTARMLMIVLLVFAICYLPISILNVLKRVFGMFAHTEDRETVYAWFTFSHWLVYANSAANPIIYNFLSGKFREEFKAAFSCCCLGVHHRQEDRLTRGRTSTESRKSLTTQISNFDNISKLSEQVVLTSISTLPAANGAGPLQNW
Description: Intracellular calcium measurements (FLIPR), CHO cells, 3 nM orexin-A as agonist. The class given is cell-based. As to conditions: geometric mean; antagonism of 3 nM orexin-A. The procedure: Fluorescence is measured for each well at 1 second intervals, and the height of each fluorescence peak is compared to the height of the fluorescence peak induced by 3 nM orexin-A with vehicle in place of antagonist. […] Optimized conditions were achieved by adjustment of pipetting speed and cell splitting regime. The calculated IC50 values may fluctuate depending on the daily cellular assay performance. Fluctuations of this kind are known to those skilled in the art.

Setting [5] is: 300 mg/kg po, Wistar rats, 12 h following administration.
Setting [6] is: brain, read-out: concentration in brain [B].
The mark [7] stands for this setting: plasma, read-out: concentration in plasma [P].

Take `CNC(=O)[C@@H](c1ccccc1)N1CCc2cc(OC)c(OC)cc2[C@@H]1CCc1ccc(C(F)(F)F)cc1` [(2R)-2-{(1S)-6,7-dimethoxy-1-[2-(4-trifluoromethyl-phenyl)-ethyl]-3,4-dihydro-1H-isoquinolin-2-yl}-N-methyl-2-phenyl-acetamide]: in [1], the “crossing of the blood-brain barrier” value is given as “cross the blood-brain barrier” and the systemic bioavailability entry was “good”. Moreover, in the series on rat [2], the “alertness (active wake and locomotion)” value is recorded as “decrease alertness”; the “time spent in both REM and NREM sleep” value was “dose-dependently increase”. In the series on rat [3], the “activity in the rat fear potentiated startle paradigm” value is recorded as “active”.

In the case of `COc1ccc(C[C@H]2c3cc(OC)c(OC)cc3CCN2[C@@H](C(=O)NC(C)C)c2ccccc2)cc1OC` [COMPOUND, (R)-2-[(S)-1-(3,4-dimethoxy-benzyl)-6,7-dimethoxy-3,4-dihydro-1H-isoquinolin-2-yl]-N-isopropyl-2-phenyl-acetamide], in the series on Wistar rats (setting [5]), the “effect on NREM sleep compared to vehicle controls” value is recorded as -2%, the “effect on REM sleep compared to vehicle controls” value is listed as “+1%”, the “effect on active wake compared to vehicle controls” value is recorded as -4% and the “effect on home cage activity compared to vehicle controls” value was -3%. In addition, the “effect in a model relevant to sleep induction” value in the series with Wistar rats (at relevant dose, summary statement) is on record as “no effect”. For the same compound, the IC50 (usually the concentration that gives 50% inhibition) at human orexin-1 receptor worked out at 27 nM. In addition, the “acquisition of locomotor sensitization to morphine (total distance moved)” value in the series on Male Sprague Dawley rats is on record as “significantly reduced”. Moreover, the “fear-potentiated startle response under light (cue) conditions as compared to vehicle” value in the series with F344 rats is recorded as “significantly reduced”. Besides, the concentration at 3 h in series [4] (setting [6]) stood at 880 ng/g. For the same compound, the concentration at 3 h in series [4] (setting [7]) was determined as 1460 ng/mL. In [4], the “capacity to cross the blood-brain barrier” value is listed as “crossed the blood-brain barrier”.

Turning to `CCCCNC(=O)[C@@H](c1ccccc1)N1CCc2cc(OC)c(OC)cc2[C@@H]1Cc1ccc(OC)c(OC)c1` [Reference Compound 1, (R)-2-[(S)-1-(3,4-Dimethoxy-benzyl)-6,7-dimethoxy-3,4-dihydro-1H-isoquinolin-2-yl]-N-butyl-2-phenyl-acetamide, reference compound], the IC50 was 12 nM on human orexin-1 receptor (geometric mean, antagonism of 3 nM orexin-A, read-out: IC50 value on the orexin-1 receptor) and over 300 nM at human orexin-2 receptor. In the series on F344 rats, the “fear-potentiated startle response under light (cue) conditions as compared to vehicle” value is “no effect”. The concentration at 3 h worked out at 530 ng/g in series [4] (setting [6]) and 850 ng/mL in series [4] (setting [7]). Moreover, the “capacity to cross the blood-brain barrier” value in series [4] is “only moderate capacity”.
